Reference: patent US11590110B2, “Compositions and methods for reactivating latent immunodeficiency virus using a GSK-3 inhibitor” (priority 2017, dated 2023)

What was measured:
[1] = test system: patient-derived CD4+ T cells; assay: Example 2: viability of patient-derived CD4+ T cells (Zombie Violet, flow cytometry); type: cell-based, human; conditions: 48 h incubation
Method: Following treatment with Tideglusib, the CD4^+ T cells were spun down and stained with the cell-death marker Zombie Violet (BioLegend). Briefly, cells were harvested 48 hours after LRA treatment, incubated with the Zombie dye for 15 minutes at room temperature, than washed and fixed with 1% PFA for 30 minutes; then washed again and analyzed via flow cytometer. Percentage of live (Zombie negative (−)) T Cells (CD3+) was normalized to the DMSO-treated control (DMSO or “untreated”=1).

[2] = test system: latent HIV-1 in GALT cultures from HIV-positive donors on suppressive ART; assay: Example 5: latency reversion in gut-associated lymphoid tissue (GALT) cultures, ddPCR; type: cell-based
Method: PBMCs and CD4^+ T cells from HIV-positive donors were cultured and treated in the presence of 5 μM saquinavir. For gut-associated lymphoid tissue (GALT) cells, to remove the epithelium and epithelial cells, 30 tissue biopsy tissue pieces were incubated in pre-warmed buffer containing 10 mM DTT, 5 mM EDTA, 10 mM HEPES and 5% FBS for 20 minutes at 37° C. under continuous rotation, vortexed and the supernatant aspirated. Tissue pieces were then incubated for a second time in the same pre-warmed buffer for a further 20 minutes at 37° C. under continuous rotation. The sample was again vortexed, and then rinsed for 20 minutes at 37° C. under continuous rotation with RMPI, 10 mM HEPES and 5% FBS. To then isolate lymphocytes from the lamina propria, a second, pre-warmed buffer containing RPMI, 10 mM HEPES, 7.5 µg/ml DNAse and 5% FBS was applied to the tissue pieces, and these were again incubated for 20 minutes at 37° C. under continuous rotation. […]
5 million resting CD4^+ T lymphocytes were plated and either left unstimulated (media alone plus DMSO), stimulated with anti-CD3/CD28 coated or incubated with LRAs for 48 hours. […] Subsequently, ddPCR was applied to quantify pre-amplified cDNA. […] Finally, samples were amplified on a BioRad C1000 Thermocycler and analyzed using a BioRad QX100 ddPCR Reader. […]

[3] = test system: CD4+ T cells; assay: Example 5: surface expression of activation markers CD69 and CD25, flow cytometry; type: cell-based, human; conditions: 48 hours
Method: (§1) Freshly isolated PBMCs or CD4^+ T cells were stained for viability, using the fixable viability dye Zombie violet (1:50, Biolegend) according to the manufacturer's recommendation. Surface staining was performed with the following antibodies at 1:100 dilutions: CD3-PE-Cy7, CD4-APC-Cy7, CD69-FITC, CD25-PE (all 1:100, Biolegend), and Glut-1-Ax647 (BD Bioscience, 566580) in staining buffer for 20 min on ice and cells were fixed in 1% PFA-containing PBS. All flow analysis was performed on the LSRII (BD Biosciences) using FlowJo software (v.10.4.2). Color compensations were performed using single-stained samples for each of the fluorochromes used. Data were analyzed using FlowJo software (TreeStar, San Carlos, Calif.).

[4] = test system: CD4+ T cells; assay: Example 5: GLUT1 surface expression, flow cytometry; type: cell-based, human; conditions: 2 or 24 hours; 1 μM tideglusib; CD4+ T cells of three HIV-negative donors
Method: as §1
Changes to the metabolism of resting CD4^+ T-cells by tideglusib were studied. […] […].

[5] = also in the brain; cited from earlier work

For `O=c1sn(-c2cccc3ccccc23)c(=O)n1Cc1ccccc1` [Tideglusib, 4-benzyl-2-(naphthalen-1-yl)-1,2,4-thiadiazolidine-3,5-dione], the “percentage of viable CD4+ T cells vs untreated control” value [1] was “Substantially all of the cells remained viable”, the “virus-associated mRNA in culture supernatant, median value” ([2]; 1 μM, 24 hours, relative to untreated control) was 20.69 fold and the “virus release vs untreated control” value ([2]; GALT cultures) was “over 20 fold”. The “surface expression of the activation markers CD69 or CD25” value [3] was “no increase”, the “GLUT1 surface expression over the untreated control” value [4] was “did not increase GLUT1 surface expression” and the tissue-permeability [5] was “high tissue-permeability also in the brain”.
